Assays:
[1] = Method: Solubility of three anti-infectives, azithromycin, praziquantel and lumefantrine, were measured in 108 formulations prepared by mixing various oils and solubilizers (9 oils×11 solubilizers, and 9 oils without solubilizer). Given the focus in rapid clinical translation, the weight fraction of the solubilizer was limited to the maximum level they were used in FDA-approved products.
Approximately two grams of oil-solubilizer mixtures in a 20 mL glass vial. Drug was added in excess to each formulation and the mixture was stirred overnight at room temperature. One milliliter of the mixture was removed, placed in a microcentrifuge tube, and centrifuged at 6000 rpm for 15 min to remove insoluble drug particles. A fraction of the supernant was removed and drug was extracted using methanol or acetonitrile. Drug concentrations in the extracts were measured using HPLC.
An Agilent 1260 Infinity II HPLC system equipped with a quaternary pump, autosampler, thermostat, control module, and diode array detector. Data processing and analysis was performed using OpenLab CDS ChemStation®. Praziquantel chromatographic separations were carried out on an Agilent ZORBAX Eclipse Plus C-18 analytical column (4.6>150 mm) with 5 μm particles, maintained at 40° C. Gradient separation at a flow rate of 1 mL/min was achieved using water and acetonitrile, which corresponds to A and B, respectively. The run time was 5 minutes with a 3-minute post-run and a gradient profile of: 0 min A: 70% and B: 30%, 2.5 min A: 30% and B: 70%. The injection volume was 5 μL. The diode array detector was set using an ultraviolet (UV) detection wavelength of 217 nm with no reference at an acquisition rate of 40 hertz.
Azithromycin chromatographic separations were carried out on an Agilent 4.6×150 mm ZORBAX Eclipse Plus C-18 analytical column with 5 μm particles, maintained at 40° C. Isocratic separation at a flow rate of 1 mL/min was achieved using 10% 10 mM ammonium phosphate dibasic in water and 90% methanol. The run time was 6 minutes. The injection volume was 10 μL. The diode array detector was set using an ultraviolet (UV) detection wavelength of 210 nm with no reference at an acquisition rate of 5 hertz.
Lumefantrine chromatographic separations were carried out on an Agilent Poroshell 120 PFP column (4.6×100 mm) with 2.7 μm particles, maintained at 40° C. Gradient separation at a flow rate of 1 mL/min was achieved using 0.1% formic acid in water and methanol, which corresponds to A and B, respectively. The run time was 7 minutes with a 3-minute post-run and a gradient profile of: 0 min A: 30% and B: 70%, 3 min A: 5% and B: 95%. The injection volume was 10 μL. The diode array detector was set using an ultraviolet detection wavelength of 303 nm with no reference wavelength at an acquisition rate of 40 hertz.

[2] = cited from earlier work
[3] = Release of ABZ from non-oil-based formulations in SIF; format: in vitro ADME
Method: To test the effect of nanosizing, the rate of release of ABZ in SIF when ABZ was used unformulated and when formulated in nanoparticles was compared. Additionally, a physical mixture of ABZ, PVA and Tween 20 was prepared to delineate the effects that the excipients had on drug release and the effect of nanosizing.
For the release study, 17.5 mg of the nanoparticle formulation, or physical mixture were placed in a 50-ml falcon tube. ABZ powder equivalent to the amount present in the physical mixture and nanoparticle formulation was used for the drug release. SIF was added to each formulation and drug release studies were conducted as described for AZT. Concentration of ABZ in release media was measured using HPLC.
ABZ samples after being prepared with methanol were analysed by Agilent 1260 Infinity I Quaternary LC equipped with a diode array detector (DAD). Isocratic elution of 0.1% formic acid in distilled water and acetonitrile was 55:45 with flow rate of 1 ml/min. Injection volume was 5 μl, and Zobrax Eclipse XDB C18 column (4.6×150 mm) was used at 40° C. The running time was 6 minutes and the retention time of ABZ is 3.4 mins. DAD was employed, and readout was detected at the wavelength of 254 nm, bandwidth of 4.0 nm and 10 Hz data acquisition rate. The method gained good peak shape and symmetry.

[4] = cited from earlier work; remark: listed apart in the source
[5] = Lindenberg et al., 2004; cited from earlier work
[6] = Solubility of albendazole in oil and oil-solubilizer formulations; conditions: 28 formulations
[7] = In vitro digestion and drug bioaccessibility of praziquantel-loaded gel; format: in vitro ADME; conditions: from oleogel
Method: The digestion of gels were characterized in three simulated conditions—oral, gastric and intestinal phases (fasted state).
Simulated salivary fluid (SSF) pH 7.0 was prepared in the presence of a-amylase based on a previously described method^24,43 with slight modifications. Briefly, SSF stock solution (1.25x concentrated, 3.5 mL) was placed in a glass vial. The 1.25× SSF stock solution contained the following ingredients: 15.1 mmol/L potassium chloride, 3.7 mmol/L potassium dihydrogen phosphate, 13.6 mmol/L sodium bicarbonate, 0.15 mmol/L magnesium chloride and 0.06 mmol/L ammonium carbonate. To this 0.5 mL of a-amylase solution (0.3 mg/mL in SSF stock solution), 0.025 mL of 0.3M calcium chloride and 0.975 mL of water were added and thoroughly mixed.
The SSF was added to 0.5 g praziquantel-loaded gel placed in a pre-heated glass vial at 37° C. containing 5 glass beads to aid in mixing. The vials were placed in an incubator shaker and shaken at 160 rpm and 37° C. One hundred microliters of the sample were withdrawn periodically, centrifuged at 14,000 rpm for 15 min. The supernant was collected and syringe filtered through a 0.22 μm nylon syringe filter (Nalgene Syringe Filters, Thermo Scientific™). Drug concentration in the filtrate was analyzed using HPLC.
In vitro digestion in gastric phase was performed in 7.5 mL simulated gastric fluid (SGF) pH 2 (2 g/L sodium chloride, 2.917 g/L concentrated hydrochloric acid) in the presence of pepsin (3.4 g/L). […] Samples (0.2 mL) were withdrawn periodically, centrifuged at 14,000 rpm for 15 min and syringe filtered through 0.22 μm nylon syringe filters (Nalgene Syringe Filters, Thermo Scientific™) prior to drug quantification with HPLC.
The fasting state simulated intestinal fluid version 2 (FaSSIF-V2) medium pH 6.5 was prepared based on a previously described method^44 in the presence of pancreatin (8×USP specification). […] Samples were then centrifuged for 15 min at 14,000 rpm at room temperature and drug concentration in the supernatant was measured using HPLC.

[8] = Stability of AZT during synthesis of oleogel (heating in cottonseed oil at 90° C.); format: physicochemical; conditions: AZT 1 mg/g in cottonseed oil; 0, 5 and 10 mins; one-way ANOVA, α=0.05
Method: Twenty-five milligrams of AZT were added to cottonseed oil in a glass vial at concentration of 1 mg/g. After 60 minutes of sonication, all drug powder was dissolved. The AZT solution was divided into three parts (8 ml each). One part was maintained at room temperature, while the other two were placed on a hot plate at 90° C. for 5 minutes and 10 minutes. Forty microliters from each vial were pipetted into 1.5-ml microcentrifuge tube containing 1 ml of methanol. AZT was extracted from the oil phase into the methanol phase by shaking on a horizontal shaker overnight. Following overnight extraction, the oil phase was separated from the methanol phase by centrifugation at 14000 RPM for 10 minutes. The methanol phase was diluted before analysis using liquid chromatography-mass spectrometry (LC-MS).
AZT concentration in methanol extract was analysed by LC-MS on Agilent 1260 Infinity I Quaternary LC equipped with a diode array detector (DAD) and Agilent 6120B Single Quadrupole mass spectrometer hardware and software. Roxithromycin (RXT) was used as an internal standard of AZT analysis. The linear range of AZT detection was 10-5000 ng/ml. […] The flow rate was 0.75 ml/min while chromatograms were recorded at wavelength of 210 nm, bandwidth of 4.0 nm and 5 Hz data acquisition rate. […]

[9] = Stability of drugs in oleogels; format: physicochemical; conditions: oleogel, 40° C., mean±S.D., n=5
Method: Finally, the stability of drugs in oleogels was tested (Table 3.3). Oleogels loaded with drugs (Azithromycin, Lumefantrine, or Ivermectin) were placed at different temperatures. At various times, drug was extracted from the oleogel and the concentration was measured using HPLC-UV or LC-MS/MS. Drug stability (last column) is represented as mean±S.D., n=5.

[10] = model input, Beringer et al., 2005; cited from earlier work
[11] = Stability of ivermectin during heating; format: physicochemical; conditions: peceol, ricebran wax, cottonseed oil
Method: As manufacturing of the formulation involves heating, the stability of ivermectin during heating was assessed (see FIG. 24).

CCCCN(CCCC)CC(O)c1cc(Cl)cc2c1-c1ccc(Cl)cc1/C2=C/c1ccc(Cl)cc1 (stereo not drawn) [lumefantrine]
average solubility in other Labrafac lipophile formulations lower than with flaxseed oil [1]: ~1.6 fold
average solubility of lumefantrine [1]: 16.6 ± 3.8 mg/g
solubility in tested formulations higher than reported water solubility [1]: ~10000 fold
solubility of lumefantrine [1]: 26.6 ± 1.8 mg/g
solubility of lumefantrine in the oils [1]: > 10 mg/g
reported water solubility of lumefantrine ([2]; reference 40): < 2 µg/g

CCCSc1ccc2nc(NC(=O)OC)[nH]c2c1 [ABZ, albendazole]
ABZ released and solubilized, plateau concentration ([3]; 90-minute release, not formulated in oil): 0.05 µg/mL
drug release (in words) ([3]; not formulated in oils, FIGS. 36A-36C): no drug release measured
reported water solubility of albendazole [4]: 41 µg/g
absorption extent [5]: < 5%
solubility in oil and oil-solubilizer formulations higher than reported water solubility [6]: ~10 fold

O=C(C1CCCCC1)N1CC(=O)N2CCc3ccccc3C2C1 (stereo not drawn) [praziquantel]
solubility in sunflower oil higher than in the rest of the oils [1]: ~2 fold
solubility of praziquantel in most oils [1]: 5 to 7 mg/g
solubilized fraction of praziquantel in the aqueous intestinal phase ([7]; FaSSIF-V2 with pancreatin, t=15 min): 51%
praziquantel in the aqueous phase, maximum of total drug content ([7]; simulated gastric digestion (SGF pH 2), within 30 min, plateau to 2 h): 10%
praziquantel detected in the SSF, of total drug content ([7]; simulated salivary fluid): ≤ 1%

CC[C@H]1OC(=O)[C@H](C)[C@@H](O[C@H]2C[C@@](C)(OC)[C@@H](O)[C@H](C)O2)[C@H](C)[C@@H](O[C@@H]2O[C@H](C)C[C@H](N(C)C)[C@H]2O)[C@](C)(O)C[C@@H](C)CN(C)[C@H](C)[C@@H](O)[C@]1(C)O [AZT, azithromycin]
AZT concentrations after heating at 90° C. [8]: no statistical effect of temperature on AZT concentrations
solubility of azithromycin in the oils [1]: 6 to 10 mg/g
water solubility lower than certain tested formulations [1]: ~100 fold
% drug stable ([9]; 44 days, Propyl gallate): 99 ± 5%
ka (absorption rate constant) [10]: 0.452 h⁻¹
solubility of azithromycin in water ([2]; reference 39): ~0.2 mg/g

ivermectin
drug recovered after heating [11]: 100%
% drug stable ([9]; 28 days, Butylated hydroxyanisole): 98 ± 11%
